In the test the target is T1, human TLR9 (Homo sapiens, UniProt Q9NR96).
T1 construct: host or cells: HEK-Blue cells
T1 sequence (Q9NR96 26-1032): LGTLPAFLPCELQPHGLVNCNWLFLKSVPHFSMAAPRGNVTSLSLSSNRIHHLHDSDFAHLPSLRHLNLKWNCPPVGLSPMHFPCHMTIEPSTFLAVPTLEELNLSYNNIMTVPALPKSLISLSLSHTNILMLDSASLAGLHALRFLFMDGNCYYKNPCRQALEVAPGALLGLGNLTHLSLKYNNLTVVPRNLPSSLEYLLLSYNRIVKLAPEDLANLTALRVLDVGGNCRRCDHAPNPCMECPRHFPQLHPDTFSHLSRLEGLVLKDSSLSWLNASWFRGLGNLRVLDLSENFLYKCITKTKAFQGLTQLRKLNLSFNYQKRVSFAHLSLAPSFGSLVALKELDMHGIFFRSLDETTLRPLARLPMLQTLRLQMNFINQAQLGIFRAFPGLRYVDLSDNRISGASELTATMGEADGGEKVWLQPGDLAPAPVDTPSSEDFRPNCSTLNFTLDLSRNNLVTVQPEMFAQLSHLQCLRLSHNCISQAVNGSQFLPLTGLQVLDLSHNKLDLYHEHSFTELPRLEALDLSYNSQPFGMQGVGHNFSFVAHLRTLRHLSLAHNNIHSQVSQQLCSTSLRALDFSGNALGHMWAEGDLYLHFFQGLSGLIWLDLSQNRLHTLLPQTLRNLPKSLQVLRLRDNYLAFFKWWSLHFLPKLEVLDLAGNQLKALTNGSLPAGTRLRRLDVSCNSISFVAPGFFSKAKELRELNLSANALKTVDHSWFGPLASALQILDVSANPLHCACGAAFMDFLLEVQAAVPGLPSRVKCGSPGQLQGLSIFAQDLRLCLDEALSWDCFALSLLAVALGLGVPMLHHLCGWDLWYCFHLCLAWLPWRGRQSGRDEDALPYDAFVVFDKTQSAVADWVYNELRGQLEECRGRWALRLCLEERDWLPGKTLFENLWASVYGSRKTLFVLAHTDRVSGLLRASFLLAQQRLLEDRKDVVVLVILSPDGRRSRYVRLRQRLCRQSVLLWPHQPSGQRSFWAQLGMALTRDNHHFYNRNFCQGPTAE
In words: TLR9 inhibition reporter assay (HEK-Blue SEAP). Format: cell-based. The conditions noted are these: HEK-Blue cells overexpressing human TLR9, ODN2006 5 nM, 22 hour incubation. The method, then:
TLR7/8/9 Inhibition Reporter Assays
HEK-Blue™-cells (Invivogen) overexpressing human TLR7, TLR8 or TLR9 receptors were used for screening inhibitors of these receptors using an inducible SEAP (secreted embryonic alkaline phosphatase) reporter gene under the control of the IFN-β minimal promoter fused to five NF-κB and AP-1-binding sites. Briefly, cells are seeded into Greiner 384 well plates (15000 cells per well for TLR7, 20,000 for TLR8 and 25,000 for TLR9) and then treated with test compounds in DMSO to yield a final dose response concentration range of 0.05 nM-50 μM. After a 30 minute compound pre-treatment at room temperature, the cells are then stimulated with a TLR7 ligand (gardiquimod at a final concentration of 7.5 μM), TLR8 ligand (R848 at a final concentration of 15.9 μM) or TLR9 ligand (ODN2006 at a final concentration of 5 nM) to activate NF-κB and AP-1 which induce the production of SEAP. After a 22 hour incubation at 37° C., 5% CO2, SEAP levels are determined with the addition of HEK-Blue™ Detection reagent (Invivogen), a cell culture medium that allows for detection of SEAP, according to manufacturer's specifications. The percent inhibition is determined as the % reduction in the HEK-Blue signal present in wells treated with agonist plus DMSO alone compared to wells treated with a known inhibitor.
The IC50 is the midpoint of a concentration-inhibition curve. A low value points to greater potency. In the case of `COc1cc(-c2cc3[nH]c(=O)n(C4CCN(C(C)C)CC4)c3cc2C(C)C)cn2ncnc12` [Example 163, 6-isopropyl-1-(1-isopropylpiperidin-4-yl)-5-(8-methoxy-[1,2,4]triazolo[1,5-a]pyridin-6-yl)-1,3-dihydro-2H-benzo[d]imidazol-2-one], the IC50 turned out to be 15.3 µM. In the case of `COc1cc(-c2cc3[nH]c(=O)n([C@@H]4CCCN(C)C4)c3cc2C(C)C)cn2ncnc12` [Example 136, (R)-6-isopropyl-5-(8-methoxy-[1,2,4]triazolo[1,5-a]pyridin-6-yl)-1-(1-methylpiperidin-3-yl)-1,3-dihydro-2H-benzo[d]imidazol-2-one], the 50% inhibitory concentration (IC50) came to 14.9 µM. Next, `COc1cc(-c2cc3[nH]c(=O)n([C@H]4CCCN(CC5CC5)C4)c3cc2C(C)C)cn2ncnc12` (single isomer, unassigned) [Example 128]: greater than 50 µM; `CCN1CCC(n2c(=O)[nH]c3cc(-c4cc(OC)c5ncnn5c4)c(C)cc32)CC1` [Example 9, 1-(1-ethylpiperidin-4-yl)-5-(8-methoxy-[1,2,4]triazolo[1,5-a]pyridin-6-yl)-6-methyl-1,3-dihydro-2H-benzo[d]imidazol-2-one]: 0.638 µM; `COc1cc(-c2cc3[nH]c(=O)n(C4CCN(CC5CCOCC5)CC4)c3cc2C(C)C)cn2ncnc12` [Example 159, 6-isopropyl-5-(8-methoxy-[1,2,4]triazolo[1,5-a]pyridin-6-yl)-1-(1-((tetrahydro-2H-pyran-4-yl)methyl)piperidin-4-yl)-1,3-dihydro-2H-benzo[d]imidazol-2-one]: 7.25 µM. Next, `CCC(CC)CN1CCC[C@H](n2c(=O)[nH]c3cc(-c4cc(OC)c5ncnn5c4)c(C(C)C)cc32)C1` [Example 130, (S)-1-(1-(2-ethylbutyl)piperidin-3-yl)-6-isopropyl-5-(8-methoxy-[1,2,4]triazolo[1,5-a]pyridin-6-yl)-1,3-dihydro-2H-benzo[d]imidazol-2-one]: 9.61 µM. Next, `COc1cc(-c2cc3[nH]c(=O)n([C@H]4CCCN(CC5CC5)C4)c3cc2C(C)C)cn2ncnc12` [Example 127, (S)-1-(1-(cyclopropylmethyl)piperidin-3-yl)-6-isopropyl-5-(8-methoxy-[1,2,4]triazolo[1,5-a]pyridin-6-yl)-1,3-dihydro-2H-benzo[d]imidazol-2-one]: 15.6 µM; `COc1cc(-c2cc3[nH]c(=O)n([C@H]4CCCN(C)C4)c3cc2C(C)C)cn2ncnc12` [Example 119, (S)-6-isopropyl-5-(8-methoxy-[1,2,4]triazolo[1,5-a]pyridin-6-yl)-1-(1-methylpiperidin-3-yl)-1,3-dihydro-2H-benzo[d]imidazol-2-one]: 26.3 µM.

With `COc1cc(-c2cc3[nH]c(=O)n(C4CCN(CC5CC5)CC4)c3cc2C(C)C)cn2ncnc12` [Example 161, 1-(1-(cyclopropylmethyl)piperidin-4-yl)-6-isopropyl-5-(8-methoxy-[1,2,4]triazolo[1,5-a]pyridin-6-yl)-1,3-dihydro-2H-benzo[d]imidazol-2-one], half-maximal inhibition (IC50) was put at 11.3 µM. Under `CCN1CCC(n2c(=O)[nH]c3cc(-c4cc(C)c5ncnn5c4)c(C)cc32)CC1` [Example 6, 1-(1-ethylpiperidin-4-yl)-6-methyl-5-(8-methyl-[1,2,4]triazolo[1,5-a]pyridin-6-yl)-1,3-dihydro-2H-benzo[d]imidazol-2-one] stands 0.871 µM. Turning to `Cc1cc(-c2ccc3c(c2)[nH]c(=O)n3C2CCN(C(C)C)CC2)cn2ncnc12` [Example 5, 1-(1-isopropylpiperidin-4-yl)-5-(8-methyl-[1,2,4]triazolo[1,5-a]pyridin-6-yl)-1,3-dihydro-2H-benzo[d]imidazol-2-one], the half-inhibitory concentration (IC50) stood at 2.75 µM. For `Cc1c(-c2cc3[nH]c(=O)n([C@@H]4CCCN(C(C)C)C4)c3cc2C(C)C)cn2ncnc2c1C` [Example 145, (R)-5-(7,8-dimethyl-[1,2,4]triazolo[1,5-a]pyridin-6-yl)-6-isopropyl-1-(1-isopropylpiperidin-3-yl)-1,3-dihydro-2H-benzo[d]imidazol-2-one], half-maximal inhibition (IC50) required 14.3 µM.

With `COc1cc(-c2cc3[nH]c(=O)n([C@H]4CCCN(C5COC5)C4)c3cc2C(C)C)cn2ncnc12` [Example 123, (S)-6-isopropyl-5-(8-methoxy-[1,2,4]triazolo[1,5-a]pyridin-6-yl)-1-(1-(oxetan-3-yl)piperidin-3-yl)-1,3-dihydro-2H-benzo[d]imidazol-2-one], the IC50 was greater than 50 µM. In turn, `COc1cc(-c2cc3[nH]c(=O)n(C4CCN(C5CCC5)CC4)c3cc2C(C)C)cn2ncnc12` [Example 156, 1-(1-cyclobutylpiperidin-4-yl)-6-isopropyl-5-(8-methoxy-[1,2,4]triazolo[1,5-a]pyridin-6-yl)-1,3-dihydro-2H-benzo[d]imidazol-2-one] returned a concentration for half-maximal inhibition (IC50) of 23.8 µM. This lies in the double-digit micromolar range. Consider `CCC(CC)CN1CCC(n2c(=O)[nH]c3cc(-c4cc(OC)c5ncnn5c4)c(C(C)C)cc32)CC1` [Example 165, 1-(1-(2-ethylbutyl)piperidin-4-yl)-6-isopropyl-5-(8-methoxy-[1,2,4]triazolo[1,5-a]pyridin-6-yl)-1,3-dihydro-2H-benzo[d]imidazol-2-one], for which half-maximal inhibition (IC50) was put at 8.72 µM. This IC50 lies about 2.7-fold lower than the previous one. Under `Cc1cc(-c2ccc3c(c2)[nH]c(=O)n3C2CCN(C(=O)CN(C)C)CC2)cn2ncnc12` [Example 102, 1-(1-(dimethylglycyl)piperidin-4-yl)-5-(8-methyl-[1,2,4]triazolo[1,5-a]pyridin-6-yl)-1,3-dihydro-2H-benzo[d]imidazol-2-one] stands 3.21 µM; under `Cc1cc2c(cc1-c1cc(C)c3ncnn3c1)[nH]c(=O)n2[C@@H]1CCCN(C(=O)CN(C)C)C1` [Example 104, (R)-1-(1-(dimethylglycyl)piperidin-3-yl)-6-methyl-5-(8-methyl-[1,2,4]triazolo[1,5-a]pyridin-6-yl)-1,3-dihydro-2H-benzo[d]imidazol-2-one], 1.45 µM; under `CCC(CC)CN1CCC[C@@H](n2c(=O)[nH]c3cc(-c4cn5ncnc5c(C)c4C)c(C(C)C)cc32)C1` [Example 151, (R)-5-(7,8-dimethyl-[1,2,4]triazolo[1,5-a]pyridin-6-yl)-1-(1-(2-ethylbutyl)piperidin-3-yl)-6-isopropyl-1,3-dihydro-2H-benzo[d]imidazol-2-one], 17.7 µM. Next, `Cc1cc2c(cc1-c1cc(C)c3ncnn3c1)[nH]c(=O)n2[C@@H]1CCCN(CC(=O)N(C)C)C1` [Example 95, (R)—N,N-dimethyl-2-(3-(6-methyl-5-(8-methyl-[1,2,4]triazolo[1,5-a]pyridin-6-yl)-2-oxo-2,3-dihydro-1H-benzo[d]imidazol-1-yl)piperidin-1-yl)acetamide]: 14.6 µM. Under `Cc1cc(-c2ccc3c(c2)[nH]c(=O)n3C2CCN(C)CC2)cn2ncnc12` [Example 4, 5-(8-methyl-[1,2,4]triazolo[1,5-a]pyridin-6-yl)-1-(1-methylpiperidin-4-yl)-1,3-dihydro-2H-benzo[d]imidazol-2-one] stands 0.964 µM; under `CCN1CCC[C@@H](n2c(=O)[nH]c3cc(-c4cc(OC)c5ncnn5c4)c(C(C)C)cc32)C1` (single isomer, unassigned) [Example 144], 14.1 µM; under `Cc1cc(-c2cc(C)c3ncnn3c2)cc2[nH]c(=O)n(C3CCN(C(C)C)CC3)c12` [Example 107, 1-(1-isopropylpiperidin-4-yl)-7-methyl-5-(8-methyl-[1,2,4]triazolo[1,5-a]pyridin-6-yl)-1,3-dihydro-2H-benzo[d]imidazol-2-one], 2.99 µM.

Regarding `Cc1cc(-c2cc(C)c3ncnn3c2)cc2[nH]c(=O)n(C3CCN(C)CC3)c12` [Example 106, 7-methyl-5-(8-methyl-[1,2,4]triazolo[1,5-a]pyridin-6-yl)-1-(1-methylpiperidin-4-yl)-1,3-dihydro-2H-benzo[d]imidazol-2-one], the IC50 amounted to 3.74 µM.

These data come from patent publication US12187723B2 (BRISTOL-MYERS SQUIBB COMPANY, priority 2019, dated 2025).
